Results from article PMC9947105, “Structural remodelling of the carbon–phosphorus lyase machinery by a dual ABC ATPase” (Nature Communications, 2023).
Changes are numbered by the printed parent chain. In names and notes the source's numbering stands.

How the values were obtained:
[1] = biological target: T1, Phn(GHIJK)2 closed, Zn2+ site at the PhnI-PhnJ interface (His site) (Escherichia coli, UniProt P16687+P16688); assay: cryo-EM structure, […] Å; format: binding; conditions: co-purified ligand modelled from density, identity not confirmed by mass spectrometry, absent in open state
T1 construct: class without PhnL density from the purified wild-type Phn(GHIJKL)2 sample (pRBS01, TEV-treated PhnK Strep-tag); with Alpha-D-ribose 1-methylphosphonate 5-triphosphate synthase subunit PhnH

[2] = biological target: T2, Phn(GHIJKL)2, PhnK nucleotide-binding site (Escherichia coli, UniProt P16678); assay: cryo-EM structure, […] Å; conditions: ATP turnover (1.5 mM ATP, 6 mM MgCl2, 37 °C, 15 s); post-hydrolysis state, ADP + Pi in PhnK site
T2 construct: hetero-dodecamer, 327 kDa, expressed in E. coli Lemo21 from pRBS01 (phn genes from pBW120); C-terminal TEV-2xStrep-tag on PhnK, TEV-treated for wild-type cryo-EM sample; with Alpha-D-ribose 1-methylphosphonate 5-triphosphate synthase subunit PhnL; Alpha-D-ribose 1-methylphosphonate 5-phosphate C-P lyase; Alpha-D-ribose 1-methylphosphonate 5-triphosphate synthase subunit PhnI; Alpha-D-ribose 1-methylphosphonate 5-triphosphate synthase subunit PhnH

[3] = biological target: T3, Phn(GHIJKL)2, PhnK nucleotide-binding site (Escherichia coli, UniProt P16678, E171Q); assay: cryo-EM structure, […] Å; conditions: 5 mM AMPPNP, 5 mM MgCl2, pH 7.5; both PhnK sites, closed dimer; PhnL empty
T3 construct: hetero-dodecamer, 327 kDa, expressed in E. coli Lemo21 from pRBS01 (phn genes from pBW120); C-terminal TEV-2xStrep-tag on PhnK, TEV-treated for wild-type cryo-EM sample; with Alpha-D-ribose 1-methylphosphonate 5-triphosphate synthase subunit PhnL; Alpha-D-ribose 1-methylphosphonate 5-phosphate C-P lyase; Alpha-D-ribose 1-methylphosphonate 5-triphosphate synthase subunit PhnI; Alpha-D-ribose 1-methylphosphonate 5-triphosphate synthase subunit PhnH

[4] = biological target: T4, Phn(GHIJKL)2 (ATPase assay) (Escherichia coli, UniProt P16678+P16679); conditions: 1 or 5 mM ATP, Mg2+, pH 7.5, 37 °C (coupled assay); hydrolysis by PhnK and PhnL
T4 construct: gene phnK

[5] = biological target: T5, Phn(GHIJKL)2 (ATPase assay) (Escherichia coli, UniProt P16678+P16679, P16678:E171Q); conditions: 1 or 5 mM ATP, Mg2+, pH 7.5, 37 °C (coupled assay); hydrolysis by PhnK and PhnL
T5 construct: gene phnK

[6] = biological target: Phn(GHIJKL)2, PhnL nucleotide-binding site (Escherichia coli, UniProt P16679); conditions: ATP turnover (1.5 mM ATP, 6 mM MgCl2, 37 °C, 15 s); both PhnL sites, dimer open; PhnK holds ADP + Pi
[7] = biological target: the molecule itself; assay: cryo-EM structure; wild type Phn(GHIJKL)2 purified as a complex with ATP and EDTA, then 1.5 mM ATP and 6 mM MgCl2, 15 s at 37 °C (ATP turnover); 3D classes: Phn(GHIJKL)2 with ADP + Pi, Phn(GHIJK)2 closed, Phn(GHIJK)2 open
[8] = biological target: the molecule itself; assay: cryo-EM structure; Phn(GHIJKL)2-PhnK E171Q co-expressed from the phnGHIJKLMNOP plasmid and purified as a complex on StrepTrap with AMPPNP; 2.5 mg/mL; 25 mM HEPES/KOH pH 7.5, 125 mM KCl, 5 mM MgCl2, 5 mM BME

## O=P(O)(O)OC[C@H]1O[C@@H]2OP(=O)(O)O[C@@H]2[C@@H]1O [5-phospho-α-D-ribose-1,2-cyclic-phosphate]
[1]
  cryo-EM structure, 2.0 Å: we were able to model the ligand as 5-phospho-α-D-ribose-1,2-cyclic-phosphate

## Nc1ncnc2c1ncn2[C@@H]1O[C@H](COP(=O)(O)OP(=O)(O)O)[C@@H](O)[C@H]1O [ADP]
[2]
  cryo-EM structure, 1.9 Å: contains ADP and Pi and consequently represents a true ATP post-hydrolysis state

## Nc1ncnc2c1ncn2[C@@H]1O[C@H](COP(=O)(O)OP(=O)(O)NP(=O)(O)O)[C@@H](O)[C@H]1O [AMPPNP]
[3]
  cryo-EM structure, 2.1 Å: clear density for AMPPNP allowed for modelling of a nucleotide in both active site pockets

## Nc1ncnc2c1ncn2[C@@H]1O[C@H](COP(=O)(O)OP(=O)(O)OP(=O)(O)O)[C@@H](O)[C@H]1O [ATP]
[4]
  ion exchange of nucleotides; coupled pyruvate kinase / lactate dehydrogenase ATP: clear ATPase activity for the wildtype PhnGHIJKL complex
[5]
  ion exchange of nucleotides; coupled pyruvate kinase / lactate dehydrogenase ATP: we observed a significantly reduced ATPase activity
[6]
  cryo-EM structure, 1.9 Å: binding of ATP to both nucleotide binding sites in PhnL

B1: PhnI (natural protein, Escherichia coli)
chain: MYVAVKGGEKAIDAAHALQESRRRGDTDLPELSVAQIEQQLNLAVDRVMTEGGIADRELAALALKQASGDNVEAIFLLRAYRTTLAKLAVSEPLDTTGMRLERRISAVYKDIPGGQLLGPTYDYTHRLLDFTLLANGEAPTLTTADSEQQPSPHVFSLLARQGLAKFEEDSGAQPDDITRTPPVYPCSRSSRLQQLMRGDEGYLLALAYSTQRGYGRNHPFAGEIRSGYIDVSIVPEELGFAVNVGELLMTECEMVNGFIDPPGEPPHFTRGYGLVFGMSERKAMAMALVDRALQAPEYGEHATGPAQDEEFVLAHADNVEAAGFVSHLKLPHYVDFQAELELLKRLQQEQNHG
notes: PhnI, subunit of carbon-phosphorus lyase, Escherichia coli phn operon; untagged, encoded on the expression plasmid; Whole phn genes amplified from pBW120; also called PhnI subunit of the C–P lyase core complex
[7]
  binding result: binds

B2: PhnK E171Q with a C-terminal TEV-2xStrep-tag (natural protein, Escherichia coli)
chain: MNQPLLSVNNLTHLYAPGKGFSDVSFDLWPGEVLGIVGESGSGKTTLLKSISARLTPQQGEIHYENRSLYAMSEADRRRLLRTEWGVVHQHPLDGLRRQVSAGGNIGERLMATGARHYGDIRATAQKWLEEVEIPANRIDDLPTTFSGGMQQRLQIARNLVTHPKLVFMDQPTGGLDVSVQARLLDLLRGLVVELNLAVVIVTHDLGVARLLADRLLVMKQGQVVESGLTDRVLDDPHHPYTQLLVSSVLQN
notes: PhnK, non-transporter ABC protein of the Escherichia coli phn operon, with the Walker B mutation E171Q; also called Phn(GHIJKL)2-PhnK E171Q; not shown: 2xStrep-tag (after a TEV site), C-terminal, kept
[8]
  binding result: binds

B3: PhnK wild type, TEV-2xStrep-tag removed with TEV protease (natural protein, Escherichia coli)
chain: B2 chain with Q171E
notes: PhnK, non-transporter ABC protein of the Escherichia coli phn operon; Residues of the TEV site probably stay at the C-terminus after cleavage; also called wild type PhnK; not shown: 2xStrep-tag (after a TEV site), C-terminal, cleaved
[7]
  binding result: binds

B4: PhnL (natural protein, Escherichia coli)
chain: MINVQNVSKTFILHQQNGVRLPVLNRASLTVNAGECVVLHGHSGSGKSTLLRSLYANYLPDEGQIQIKHGDEWVDLVTAPARKVVEIRKTTVGWVSQFLRVIPRISALEVVMQPLLDTGVPREACAAKAARLLTRLNVPERLWHLAPSTFSGGEQQRVNIARGFIVDYPILLLDEPTASLDAKNSAAVVELIREAKTRGAAIVGIFHDEAVRNDVADRLHPMGASS
notes: PhnL, non-transporter ABC protein of the Escherichia coli phn operon; untagged; β hairpin extension residues 7-14; Identified in the complex by mass spectrometry and by the EM density; also called PhnL subunit; ABC module PhnL; source: E. coli Lemo21 (pRBS01 or pRBS01-PhnK E171Q), co-expressed, purified as part of the complex through Strep-tagged PhnK
[7]
  binding result: binds
